# Results reported in US20220280581A1, “BENEFICIAL BACTERIA AND SECRETORY IMMUNOGLOBULIN A” (priority 2019, published 2022).
# Assay: BLI persistence / colonization in mice (feces)
# Format: in vivo, BALBc mice
# Description: Mice: 6-week old female BALBc mice were purchased from The Jackson Labs. Mice were housed in an American Association for the Accreditation of Laboratory Animal Care-accredited facility, and procedures were conducted in compliance with the University of California Institutional Animal Care and Use Committee. Mice were co-housed 5 mice per cage in the Training and Research Animal Care Services vivarium at the University of California, Davis under conventional conditions with free access to standard chow RM1P (801151, Special Diet Services, Witham, England) and sterilized tap water with or without 2′FL. Mice were acclimated for 1 week prior to treatment. Mice were euthanized by decapitation following deep anesthesia with 100 mg/kg ketamine and 10 mg/kg xylazine administered by intraperitoneal injection.
# Tissue Collection: Fecal samples were collected aseptically every 2 days for BLI detection. During necropsy, segments of duodenum, ileum, and colon were sectioned. First, Peyer's patches (PP) were collected and stored in 200 μL PBS in bead-beating tubes for homogenization and plating on blue/white screening agar. Duodenum, ileum, colon and cecum contents were collected into sterile tubes for bacterial analysis.
# Bacterial plating and counting: PP, luminal contents and fecal samples were subjected to bead beating for 60 s at 4 m/s using a FastPrep homogenizer and 2 mm zirconium ceramic beads. Homogenate was serially diluted and plated on LB agar with kanamycin, x-gal and IPTG (blue-white screening agar) for differentiating JS107 and SJF10 strains, or further processed for DNA extraction and RT-qPCR for quantitation of BLI. […]
# Strain-Specific qPCR: BLI was detected in fecal samples and intestinal contents following DNA extraction as described in Frese et al.^15 using the following primers: BLON0915F 5′[…]3′ and BLON0915R 5′ […]3′. […]
substance,measurement,setting,value
Bifidobacterium longum ssp. infantis ATCC 15697,increase of colonization in the gastrointestinal tract with SIgA association,5-6 week old BALBc mice fed water,4 log-scale
same,increase of colonization in the gastrointestinal tract with SIgA association,mice supplemented with an HMO (10% 2′ fucosyllactose),5 log-scale
same,higher concentration in feces when pre-incubated with milk SIgA,"one day post oral administration, vs not pre-incubated",10 ×
